From patent US20110178041A1, “HETEROCYCLIC BIARYL DERIVATIVE AND PDE INHIBITOR COMPRISING SAME AS ACTIVE INGREDIENT” (priority 2008, published 2011)

Assays:
[1] = test system: LPS-induced pulmonary inflammation (total leukocytes in BALF); assay: LPS-induced pulmonary inflammation in rats; assay type: in vivo; details: Leukocyte; rat, 3 mg/kg oral one hour before LPS inhalation, BALF 3 hours after LPS; read-out: rate of inhibition of total number of leukocytes in BALF
Experimental: One hour before the inhalation of lipopolysaccharide from E. coli serotype 055:B5 (LPS), each candidate compound was orally administered to each test rat in a dose of 3 mg/kg, and then the test animal was allowed to inhale an LPS solution (50 mL) over 30 minutes, while the solution was atomized using a nebulizer. After 3 hours from the LPS-inhalation, the rats were euthanized by the administration of a 20% urethane solution (5 ml/rat, i.p.). The bronchial cannula was inserted through the trachea. Broncoalveolar lavage was performed by injecting 5 ml physiological saline, three consecutive times using a 5 mL volume syringe. The operations were repeated twice and these physiological saline samples were recovered as broncoalveolar lavage fluid (BALF). Each of the BALF thus recovered was centrifuged at 1200 rpm and 4° C. for 10 minutes (Hirtachi; himac […]), the resulting residue was again suspended in 10 mL of 0.1% bovine serum albumin-containing physiological saline, an equivalent volume of Turk's diluting fluid was added to the suspension to thus stain the leukocytes present therein and the total number of leukocytes was determined under the microscopic observation to thus calculate the rate of inhibition.

[2] = target: T1, PDE3A catalytic zone (PDE3Acat) (Homo sapiens, UniProt Q14432); assay: Phosphodiesterase 3-inhibitory activity ([3H]-cAMP, recombinant PDE3Acat); assay type: biochemical; details: 30° C. 20 minutes, read-out: IC50 value, PDE3
T1 construct: made in house; host or cells: Sf9 insect cells (baculovirus, Bac-to-Bac / Gateway)
T1 sequence (Q14432 674-1093 limits assumed): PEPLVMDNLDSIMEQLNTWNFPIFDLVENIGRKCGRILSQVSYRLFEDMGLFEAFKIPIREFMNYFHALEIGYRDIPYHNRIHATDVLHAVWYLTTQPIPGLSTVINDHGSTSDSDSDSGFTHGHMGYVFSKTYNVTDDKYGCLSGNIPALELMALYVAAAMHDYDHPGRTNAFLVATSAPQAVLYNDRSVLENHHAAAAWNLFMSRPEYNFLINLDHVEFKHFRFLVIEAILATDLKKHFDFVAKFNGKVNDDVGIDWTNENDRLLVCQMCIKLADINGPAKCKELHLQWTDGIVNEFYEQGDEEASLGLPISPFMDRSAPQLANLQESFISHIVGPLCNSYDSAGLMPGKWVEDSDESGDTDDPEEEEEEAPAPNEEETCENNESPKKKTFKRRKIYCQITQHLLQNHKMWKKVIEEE

[3] = target: T2, PDE4B catalytic zone (PDE4Bcat) (Homo sapiens, UniProt Q07343); assay: Phosphodiesterase 4 inhibitory activity ([3H]-cAMP, recombinant PDE4Bcat); assay type: biochemical; details: 30° C. 20 minutes, read-out: IC50 (μmol/L) PDE4
T2 construct: made in house; host or cells: Sf9 insect cells (baculovirus, Bac-to-Bac / Gateway)
T2 sequence (Q07343 330-659 limits assumed): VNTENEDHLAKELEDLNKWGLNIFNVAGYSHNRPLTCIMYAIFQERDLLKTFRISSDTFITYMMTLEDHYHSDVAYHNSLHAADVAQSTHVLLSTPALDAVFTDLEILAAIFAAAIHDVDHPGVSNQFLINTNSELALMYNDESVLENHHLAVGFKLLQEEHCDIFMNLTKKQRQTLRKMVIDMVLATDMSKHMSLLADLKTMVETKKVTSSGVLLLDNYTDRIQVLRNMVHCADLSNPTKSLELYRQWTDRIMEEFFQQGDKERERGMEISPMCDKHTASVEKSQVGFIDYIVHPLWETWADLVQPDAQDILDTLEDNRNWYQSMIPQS

Row | SMILES | inhibition in vivo at 3 mg/kg [1] | IC50 [2] | IC50 [3]
1 | CNc1ccc(-c2ccc3c(c2)CCNC3=O)n2c(Cl)c(C(F)(F)F)nc12 [Example 143, 6-(3-Chloro-8-methylamino-2-trifluoromethylimidazo[1,2-a]pyridin-5-yl)-3,4-dihydroisoquinolin-1(2H)-one] | ≥ 60% | > 1000 nM | < 0.01 µmol/L
2 | COc1ccc(-c2ccc3c(=O)[nH]cc(Cl)c3c2)c2cc(C(F)(F)F)nn12 [Example 60, 4-Chloro-6-(7-methoxy-2-trifluoromethylpyrazolo[1,5-a]pyridin-4-yl)isoquinolin-1(2H)-one] | ≥ 60% | > 1000 nM | < 0.01 µmol/L
3 | COc1ccc(-c2ccc3c(c2)CCNC3=O)c2cc(C(F)(F)F)nn12 [Example 58, 6-(7-Methoxy-2-trifluoromethylpyrazolo[1,5-a]pyridin-4-yl)-3,4-dihydroisoquinolin-1(2H)-one] | ≥ 60% | > 1000 nM | 0.01 to 0.1 µmol/L
4 | CNc1ccc(-c2ccc3c(c2)CCNC3=O)c2cc(C(F)(F)F)nn12 [Example 63, 6-(7-Methylamino-2-trifluoromethylpyrazolo[1,5-a]pyridin-4-yl)-3,4-dihydroisoquinolin-1(2H)-one] | ≥ 60% | > 1000 nM | < 0.01 µmol/L
5 | COc1ccc(-c2ccc3c(c2)CNC3=O)c2cc(C(F)(F)F)nn12 [Example 59, 5-(7-Methoxy-2-trifluoromethylpyrazolo[1,5-a]pyridin-4-yl)isoindolin-1-one] | ≥ 60% | > 1000 nM | 0.01 to 0.1 µmol/L
6 | COc1ccc(-c2ccc3c(c2)CCNC3=O)c2cc(C3CC3)nn12 [Example 121, 6-(2-Cyclopropyl-7-methoxypyrazolo[1,5-a]pyridin-4-yl)-3,4-dihydroisoquinolin-1(2H)-one] | ≥ 60% | > 1000 nM | 0.01 to 0.1 µmol/L
7 | CNc1ccc(-c2ccc3[nH]c(=O)ccc3c2)c2cc(C(F)(F)F)nn12 [Example 64, 6-(7-Methylamino-2-trifluoromethylpyrazolo[1,5-a]pyridin-4-yl)quinolin-2(1H)-one] | ≥ 60% | > 1000 nM | < 0.01 µmol/L
8 | COc1ccc(-c2ccc3c(c2)CCNC3=O)c2c(Cl)c(C(F)(F)F)nn12 [Example 62, 6-(3-Chloro-7-methoxy-2-trifluoromethylpyrazolo[1,5-a]pyridin-4-yl)-3,4-dihydroisoquinolin-1(2H)-one] | ≥ 60% | – | < 0.01 µmol/L
9 | COc1ccc(-c2ccc3c(c2)CCC(=O)N3C)c2cc(C(F)(F)F)nn12 [Example 102, 6-(7-Methoxy-2-trifluoromethylpyrazolo[1,5-a]pyridin-4-yl)-1-methyl-3,4-dihydroquinolin-2(1H)-one] | ≥ 60% | > 1000 nM | 0.01 to 0.1 µmol/L
10 | COc1ccc(-c2ccc3[nH]c(=O)ccc3c2)n2c(Cl)c(C(F)(F)F)nc12 [Example 89, 6-(3-Chloro-8-methoxy-2-(trifluoromethyl)imidazo[1,2-a]pyridin-5-yl)quinolin-2(1H)-one] | ≥ 60% | > 1000 nM | < 0.01 µmol/L
11 | CNc1ccc(-c2ccc3[nH]c(=O)ccc3c2)n2c(Cl)c(C(F)(F)F)nc12 [Example 142, 6-(3-Chloro-8-methylamino-2-trifluoromethylimidazo[1,2-a]pyridin-5-yl)quinolin-2(1H)-one] | ≥ 60% | > 1000 nM | < 0.01 µmol/L
12 | COc1ccc(-c2ccc3c(ccc(=O)n3C)c2)c2c(Cl)c(C(F)(F)F)nn12 [Example 115, 6-(3-Chloro-7-methoxy-2-trifluoromethylpyrazolo[1,5-a]pyridin-4-yl)-1-methylquinolin-2(1H)-one] | ≥ 60% | > 1000 nM | < 0.01 µmol/L
13 | COc1ccc(-c2ccc3c(c2)CCC(=O)N3)c2c(Cl)c(C(F)(F)F)nn12 [Example 116, 6-(3-Chloro-7-methoxy-2-trifluoromethylpyrazolo[1,5-a]pyridin-4-yl)-3,4-dihydroquinolin-2(1H)-one] | – | – | 0.01 to 0.1 µmol/L
14 | COc1ccc(-c2ccc3[nH]c(=O)ccc3c2)c2ccc(C)nc12 [Example 68, 8-Methoxy-2-methyl-5,6′-biquinolin-2′(1′H)-one] | – | – | 0.01 to 0.1 µmol/L
